In the test the target is T1, CCR1 (Homo sapiens, UniProt P32246).
T1 sequence (P32246 1-355): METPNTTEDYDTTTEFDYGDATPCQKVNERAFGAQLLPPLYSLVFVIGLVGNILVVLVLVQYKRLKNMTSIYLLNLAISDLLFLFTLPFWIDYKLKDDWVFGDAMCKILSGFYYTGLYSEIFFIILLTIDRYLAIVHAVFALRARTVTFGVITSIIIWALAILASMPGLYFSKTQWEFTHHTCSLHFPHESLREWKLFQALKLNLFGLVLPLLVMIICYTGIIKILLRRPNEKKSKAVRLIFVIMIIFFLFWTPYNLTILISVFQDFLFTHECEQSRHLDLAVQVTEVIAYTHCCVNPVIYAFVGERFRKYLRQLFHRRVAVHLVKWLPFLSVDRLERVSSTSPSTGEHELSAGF
The test can be described thus: Method B: calcium flux in CCR1 transfected cells (Calcium 4 dye, […] FDSS6000), block of the CCR1/MIP-1α interaction. Format: cell-based. As to conditions: Method B: Calcium 4 dye, MIP-1alpha at EC80. The method, boiled down:
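Calcium flux on an FDSS6000 was triggered by MIP-1α at its EC80 in stably CCR1/G-alpha-16-expressing non-adherent cells. Before this, Calcium 4-loaded cells were preincubated with compound in HBSS, 20 mM HEPES pH 7.4, 1% DMSO: 30 min at 37 C plus 30 min at room temperature. Ten 4-fold doses began at 3,000 nM, with ±MIP-1α DMSO wells as controls.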
Background: Calcium assays in cells follow changes in intracellular calcium, usually with a dye or a luminescent sensor.

For `CC[C@H](NC(=O)c1cncc2c1cnn2-c1ccc(F)cc1)c1ccc(S(C)(=O)=O)s1` [1-(4-Fluorophenyl)-1H-pyrazolo[3,4-c]pyridine-4-carboxylic acid [(S)-1-(5-methanesulfonyl-thiophen-2-yl)-propyl]-amide], the IC50 was found to be 200 pM.
With `C[C@H](NC(=O)c1cncc2c1cnn2-c1ccc(F)cc1)c1cnc(S(C)(=O)=O)s1` [1-(4-Fluorophenyl)-1H-pyrazolo[3,4-c]pyridine-4-carboxylic acid [(S)-1-(2-methanesulfonyl-thiazol-5-yl)-ethyl]-amide], the IC50 came to 6000 pM.
For `CC[C@H](NC(=O)c1cncc2c1cnn2-c1ccc(F)cc1)c1nc(Br)cs1` [1-(4-Fluorophenyl)-1H-pyrazolo[3,4-c]pyridine-4-carboxylic acid [(S)-1-(4-bromo-thiazol-2-yl)-propyl]-amide], the IC50 was 800 pM.
On to `CC(C)(O)CNc1cc(CNC(=O)c2cncc3c2cnn3-c2ccc(F)cc2)cc(S(C)(=O)=O)n1` [1-(4-Fluorophenyl)-1H-pyrazolo[3,4-c]pyridine-4-carboxylic acid [2-(2-hydroxy-2-methyl-propylamino)-6-methanesulfonyl-pyridin-4-ylmethyl]-amide], for which the half-maximal inhibitory concentration (IC50) is 700 pM.
As for `CS(=O)(=O)c1ccc(CNC(=O)c2cncc3c2cnn3-c2ccc(F)cc2)s1` [1-(4-Fluorophenyl)-1H-pyrazolo[3,4-c]pyridine-4-carboxylic acid (5-methanesulfonyl-thiophen-2-ylmethyl)-amide], the IC50 came out at 5000 pM.
For `CC[C@H](NC(=O)c1cncc2c1cnn2-c1ccc(F)cc1)c1ccnc(N(C)C(C)=O)c1` [1-(4-Fluorophenyl)-1H-pyrazolo[3,4-c]pyridine-4-carboxylic acid {(S)-1-[2-(acetyl-methyl-amino)-pyridin-4-yl]-propyl}-amide] the value was 5000 pM; for `CC[C@H](NC(=O)c1cncc2c1cnn2-c1ccc(F)cc1)c1c[nH]c(S(C)(=O)=O)c1` [1-(4-Fluorophenyl)-1H-pyrazolo[3,4-c]pyridine-4-carboxylic acid [(S)-1-(5-methanesulfonyl-1H-pyrrol-3-yl)-propyl]-amide], 900 pM; for `CNc1cc([C@H](C)NC(=O)c2cncc3c2cnn3-c2ccc(F)cc2)cc(S(C)(=O)=O)n1` [1-(4-Fluorophenyl)-1H-pyrazolo[3,4-c]pyridine-4-carboxylic acid [(S)-1-(2-methanesulfonyl-6-methylamino-pyridin-4-yl)-ethyl]-amide], 400 pM.
For `COc1cc([C@H](C)NC(=O)c2cncc3c2cnn3-c2ccc(F)cc2)cc(S(C)(=O)=O)n1` [1-(4-Fluorophenyl)-1H-pyrazolo[3,4-c]pyridine-4-carboxylic acid [(S)-1-(2-methanesulfonyl-6-methoxy-pyridin-4-yl)-ethyl]-amide], the half-maximal inhibitory concentration (IC50) amounted to 400 pM.
As to `CCC(CC)(NC(=O)c1cncc2c1cnn2-c1ccc(F)cc1)c1ccnc(S(C)(=O)=O)c1` [1-(4-Fluorophenyl)-1H-pyrazolo[3,4-c]pyridine-4-carboxylic acid [1-ethyl-1-(2-methanesulfonyl-pyridin-4-yl)-propyl]-amide], the IC50 worked out at 16000 pM.
For the molecule `CC[C@H](NC(=O)c1cncc2c1cnn2-c1ccc(F)cc1)c1ccc(Br)s1` [1-(4-Fluorophenyl)-1H-pyrazolo[3,4-c]pyridine-4-carboxylic acid [(S)-1-(5-bromo-thiophen-2-yl)-propyl]-amide], the IC50 amounted to 600 pM.
In the case of `CC[C@H](NC(=O)c1cncc2c1cnn2-c1ccc(F)cc1)c1coc(S(C)(=O)=O)n1` [1-(4-Fluorophenyl)-1H-pyrazolo[3,4-c]pyridine-4-carboxylic acid [(S)-1-(2-methanesulfonyl-oxazol-4-yl)-propyl]-amide], the half-inhibitory concentration (IC50) amounted to 4000 pM.
Take `CS(=O)(=O)c1nc(CNC(=O)c2cncc3c2cnn3-c2ccc(F)cc2)cs1` [1-(4-Fluorophenyl)-1H-pyrazolo[3,4-c]pyridine-4-carboxylic acid (2-methanesulfonyl-thiazol-4-ylmethyl)-amide]: the IC50 amounted to 29000 pM.

Broadly, the IC50 is the concentration at which inhibition is half-maximal.
